The source of these data is patent publication US20240325389A1, “NEW THERAPEUTIC TARGETS WITH AN ANTI-INFLAMMATORY AND ANTI-INTERFERON EFFECT” (priority 2020, published 2024).

In data set [1] the test system is neurones infected by the prions. Format: cell-based.
Data set [2] deals with peripheral blood mononuclear cells (PBMCs) of healthy donors. As to the kind of experiment: Cytokine and interferon secretion by PBMCs after TLR7/8 (R848) stimulation, LegendPlex. Format: cell-based, human. As to conditions: for production and secretion of pro-inflammatory cytokines, such as IL-6, IL-1p and the interferons induced by the TLR7/8 stimulation / production of TNFα induced by the TLR7/8 stimulation: human PBMCs incubated with inhibitor before R848.

The next data set concerns DBA/1J mice. As to conditions: for total average arthritis scores (histopathology): with respect to the control vehicle.
Data set [3] has as its system 1C11 neuroectodermal stem cells. As to the kind of experiment: mRNA encoding TNFα, IL6 and MCP1 in LPS-activated 1C11 stem cells, RT-qPCR. Type of data set: cell-based, Mus. As to conditions: inhibitor 1 h before LPS 100 ng/ml.
The test system of data set [4] is peripheral blood mononuclear cells (PBMCs) of healthy donors. As to the kind of experiment: Test for toxicity of the compounds on PBMCs (CellTiter-Glo, ATP). Format: cell-based, human. The note with it: 24 h of cell culture. Here is the method:
Test for toxicity of the compounds on the peripheral blood mononuclear cells (PBMCs).
After 24 h of cell culture, the cell viability was determined using the CellTiter-Glo reagent (Promega), which evaluates the amount of ATP by luminescence using the EnSpire.

For data set [5], the system named is monocytes of healthy donors. As to the kind of experiment: Intracellular TNFα production in monocytes after TLR2 (LTA) stimulation, flow cytometry. As to conditions: inhibitor 1 h before LTA 1 μg/ml (TLR2), 16 h. Type of data set: cell-based, human.
In data set [6] the test system is monocytes of patients suffering from juvenile idiopathic arthritis. Kind of data set: Spontaneous TNFα production by monocytes of juvenile idiopathic arthritis patients, SIMOA. Format: cell-based, human. As to conditions: monocytes incubated with inhibitor for 24 h, no stimulation.
In data set [7] the test system is peripheral blood mononuclear cells (PBMCs) of healthy donors. As to the kind of experiment: Interferons secreted by R848-stimulated PBMCs, STING-37 reporter cell line. Type of data set: cell-based, human.
For data set [8], the system named is THP1-Dual. Kind of data set: Interferon response of cGAMP-stimulated THP1-Dual cells, luciferase.
The subject of data set [9] is monocytes of healthy donors. Kind of data set: Intracellular TNFα production in monocytes after TLR4 (LPS) stimulation, flow cytometry. Format: cell-based, human. The note with it: for production of inflammatory cytokines: PBMCs and purified monocytes of healthy donors, Toll-like receptors 2/4 (lipoteichoic acid/LPS).
The subject of the next data set is B lymphocytes. Kind of data set: Activation of B lymphocytes by CpG-A (CD69), flow cytometry. Format: cell-based, human. The note with it: inhibitor 1 h at 1 μM, then CpG-A 1 μg/ml (TLR9) 24 h.
Another data set relates to T lymphocytes. Kind of data set: Activation of T lymphocytes by CD3/CD28 beads (CD69), flow cytometry. Format: cell-based, human. As to conditions: inhibitor 1 h at 1 and 5 μM, then CD3/CD28 beads 3 days.
Data set [10] relates to peripheral blood mononuclear cells (PBMCs). As to the kind of experiment: Interferon production by cGAMP-stimulated PBMCs, STING-37 reporter.
In data set [11] the test system is 1C11^5-HT serotonergic neurons. Kind of data set: mRNA encoding TNFα, IL6 and MCP1 in LPS-activated 1C11^5-HT neurons, RT-qPCR. The note with it: inhibitor 1 h before LPS 100 ng/ml. Type of data set: cell-based, Mus.
Data set [12] has as its system peripheral blood mononuclear cells (PBMCs) of healthy donors. As to the kind of experiment: Cytokine and interferon secretion by PBMCs in response to HIV, LegendPlex. Type of data set: cell-based, human. The note with it: inhibitor 1 h before AT-2-inactivated HIV-1MN, 24 h.
The test system of data set [13] is THP1-Dual. As to the kind of experiment: mRNA encoding TNFα, IL6 and MCP1 in LPS-activated THP1-Dual monocytes, RT-qPCR. Format: cell-based, human. The note with it: inhibitor 1 h before LPS 100 ng/ml.
In data set [14] the test system is plasmacytoid dendritic cells (pDC) of healthy donors. As to the kind of experiment: Intracellular IFNα and TNFα in plasmacytoid dendritic cells in response to HIV, flow cytometry. Format: cell-based, human. The note with it: inhibitor 1 h before AT-2-inactivated HIV-1MN, 16 h.
Data set [15] has as its system monocytes of healthy donors. As to the kind of experiment: Intracellular TNFα production in monocytes after TLR7/8 (R848) stimulation, flow cytometry. Type of data set: cell-based, human. As to conditions: for production of inflammatory cytokines: PBMCs and purified monocytes of healthy donors, Toll-like receptor 7/8 (R848); for intracellular production of inflammatory cytokines (TNFα): monocytes, inhibitor 1 h before R848 5 μg/ml (TLR7/8), 16 h.

The subject of data set [16] is monocytes of healthy donors. Kind of data set: Intracellular IL-1β and TNFα in monocytes after inflammasome activation by uric acid crystals (MSU, gout model), flow cytometry. Type of data set: cell-based, human. The note with it: for production of inflammatory cytokines: monocytes of healthy donors, activation of the inflammasome by uric acid crystals.
In data set [17] the test system is peripheral blood mononuclear cells (PBMCs) of healthy donors. Kind of data set: Cytokine and interferon secretion by PBMCs after TLR4 (LPS) stimulation, LegendPlex. Format: cell-based, human. As to conditions: inhibitor 1 h before LPS 100 ng/ml (TLR4), 24 h.
Another data set relates to HEK293. Kind of data set: Interferon production by cGAMP-stimulated HEK293 non-immune cells (STING-37), luciferase. The note with it: inhibitor at 1 μM, cGAMP 3 μg/ml, 24 h.
The mark [18] stands for this setting: 10 mg/kg daily oral, terminal plasma, ELISA.
Where [19] appears, read: cGAMP stimulation, CellTiter Glo.
Setting [20] is: monocytes, inhibitor 1 h before MSU 50 μg/ml, 16 h.

Structures are written as SMILES. Read-outs that look alike come from different tables or passages of the source.

Consider `Cc1cncc2cccc(S(=O)(=O)N3CCCNCC3C)c12` (centres unmarked) [formula (VIII), dimethylfasudil], for which, in data set [1], the “level of TNFα in the culture medium” value is on record as “re-establishes”. Further, in data set [2], the “production and secretion of pro-inflammatory cytokines, such as IL-6, IL-1p and the interferons induced by the TLR7/8 stimulation” value was “inhibits”; the “production of TNFα induced by the TLR7/8 stimulation” value was “inhibits”.

Regarding `O=C(Nc1cccc(Nc2ncc(Br)c(NCCc3c[nH]cn3)n2)c1)N1CCCC1` [BX912], in the data set on DBA/1J mice (0.5 mg/kg daily oral (group 3)), the “effect on progression and severity of the disease” value is “no ameliorative effect”. Also, in the data set with DBA/1J mice (0.5 mg/kg daily oral (group 3)), the “total average arthritis scores (histopathology)” value is listed as “slight reductions”. The “rate of progression of the disease” value in the data set with DBA/1J mice (2 mg/kg daily oral (group 4)) is reported as “significant reduction”. Besides, the results for the “reduction in the (overall) severity of the disease at the end of the study” value in the data set with DBA/1J mice (2 mg/kg daily oral (group 4)) and in the data set on DBA/1J mice (10 mg/kg daily oral) were 56% and 82%, respectively. Moreover, in the data set on DBA/1J mice (10 mg/kg daily oral (group 5)), the “progression of the disease” value is recorded as “stopped”. Further, the “reduction in the terminal plasma levels of IL-1i” value in the data set on DBA/1J mice (10 mg/kg daily oral (group 5), ELISA) is reported as 37%. For the same compound, the “decrease in terminal plasma IL-6” value in the data set on DBA/1J mice (setting [18]) was found to be 62%. Also, the “rate of progression of the disease and severity of the disease” value with DBA/1J mice (daily oral, 0.5, 2 and 10 mg/kg) is recorded as “dose-dependent reduction”. Also, the “transcription of the genes encoding TNFα, IL6 and MCP1 induced by LPS” value in data set [3] and in [11] was “does not block” in each case. In addition, the “toxicity on the peripheral blood mononuclear cells (PBMCs)” value in data set [4] (PBMCs infected with HIV) and in data set [4] (stimulation of the TLR4 receptors) was “no toxicity” in each case. For the same compound, the “toxicity on the immune cells (PBMCs)” value in [4] (stimulation of the TLR7/8 receptors) is recorded as “no toxicity”. In addition, the “production of inflammatory cytokines (TNFα)” value is given as “inhibits, according to a dosage effect” in data set [5] and “inhibits, according to a dosage effect” in data set [9] (monocytes, inhibitor 1 h before LPS 100 ng/ml (TLR4), 16 h). The “spontaneous production of TNFα” value in [6] is listed as “inhibits”. Besides, the secretion of interferons entry in data set [7] (curative: inhibitor 1 h after R848 (TLR7/8) stimulation, FIG. 15C) is “blocking”; in [7] (inhibitor during the R848 (TLR7/8) stimulation, FIG. 15B), “blocking”; in data set [7] (preventive: inhibitor 1 h before R848 (TLR7/8) stimulation, FIG. 15A) it was “blocking”. Besides, the “concentration from which the production of interferons (IFN) induced by cGAMP is blocked, according to a dosage effect” value in the data set on THP1-Dual [8] (THP1-Dual, inhibitor 1 h before cGAMP 3 μg/ml, 24 h) was at least 1 µM; in data set [10] (PBMCs, inhibitor 1 h before cGAMP 3 μg/ml, 24 h), at least 1 µM. Further, the “viability of the THP1-Dual” value in the data set on THP1-Dual [8] (setting [19]) was “without affecting the viability”. Further, the “production of inflammatory cytokines” value in data set [9], in data set [15] and in data set [16] was “capable of inhibiting” in each case. Moreover, in the data set with B lymphocytes, the “expression of the CD69 marker at the surface of the B lymphocytes” value is “inhibits, according to a dosage effect”. Besides, in the data set with B lymphocytes, the “viability of the B lymphocytes” value is on record as “without affecting the viability”. Moreover, the “secretion of the inflammatory cytokines (IL-6, IL-1β, TNFα, IP10, GM-CSF, IL-10) and the interferons (IFN11, IFN12/3, IFNβ, IFNg)” value in [2] (PBMCs, inhibitor 1 h before R848 5 μg/ml (TLR7/8), 24 h) was “inhibits”. Besides, in the data set with T lymphocytes, the “expression of the CD69 marker at the surface of the T lymphocytes” value is reported as “inhibits, according to a dosage effect”. Besides, the “viability of the T lymphocytes” value in the data set with T lymphocytes is listed as “without affecting the viability”. In addition, the “viability of the PBMCs” value in [10] (setting [19]) is given as “without affecting the viability”. Moreover, the “secretion of the inflammatory cytokines (IL-6, IL-1β, TNFα, P10) and the interferons (IFNα2, IFNβ, IFN11)” value in data set [12] was “inhibits”. The “concentration from which the transcription of the gene encoding TNFα, IL6 and MCP1 induced by LPS is reduced, according to a dosage effect” value in the data set with THP1-Dual [13] is at least 0.5 µM. Further, the “intracellular production of interferon IFNα” value in [14] is reported as “inhibits”. Further, the “production of TNFα” value in data set [14] and in data set [16] (setting [20]) was “inhibits” in each case. Also, the “intracellular production of inflammatory cytokines (TNFα)” value in data set [15] is recorded as “inhibits, according to a dosage effect”. In addition, the “intracellular production of IL-1β” value in data set [16] (setting [20]) is reported as “inhibits”. Further, the “secretion of the inflammatory cytokines (IL-6, IL-1β, TNFα, GM-CSF, IL-10) and the interferons (IFNI⅔, IFNβ, IFNg)” value in data set [17] is listed as “inhibits”. In the data set with HEK293, the “production of interferon induced by the STING ligand” value is listed as “does not block”.

As for `C[C@@H](N)[C@H]1CC[C@H](C(=O)Nc2ccncc2)CC1` [Y27632], the “level of TNFα in the culture medium” value in data set [1] was “re-establishes”. Further, the “production of inflammatory cytokines” value in data set [9], in [15] and in data set [16] was “capable of inhibiting” in each case. Moreover, the “production and secretion of pro-inflammatory cytokines, such as IL-6, IL-1p and the interferons induced by the TLR7/8 stimulation” value in data set [2] is on record as “inhibits”. In addition, the “production of TNFα induced by the TLR7/8 stimulation” value in data set [2] is recorded as “inhibits”. Besides, the “intracellular production of inflammatory cytokines (TNFα)” value in data set [15] is given as “inhibits, according to a dosage effect”.

Regarding `C[C@]12C=CC(=O)C=C1CC[C@@H]1[C@@H]2[C@@H](O)C[C@@]2(C)[C@H]1CC[C@]2(O)C(=O)CO` [prednisolone, reference compound], in the data set with DBA/1J mice (10 mg/kg daily oral), the “reduction in the (overall) severity of the disease at the end of the study” value was 95% and the “total average arthritis scores (histopathology)” value is on record as “lowest”. Moreover, in the data set on DBA/1J mice (setting [18]), the “decrease in plasma IFNγ” value is listed as 49%, the “decrease in plasma TNFα” value turned out to be 54% and the “decrease in terminal plasma IL-6” value turned out to be 70%.
